Experimental data from PubChem BioAssay (NCI).
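How tested: cells in 96-well plates exposed to compound for 48 hours at five concentrations. TGI denotes the concentration required for complete inhibition of growth.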

Columns and labels:
Assay in all cases: inhibition of tumour cell growth, NCI panel, 48 h
[1] = test system: SNB-19 CNS
[2] = test system: EKVX NSCLC
[3] = test system: ACHN renal
[4] = test system: NCI-H522 lung
[5] = test system: HOP-92 NSCLC
[6] = test system: MDA-MB-435
[7] = test system: OVCAR-5 ovarian
[8] = test system: SNB-75 CNS
[9] = test system: BT-549 breast
[10] = test system: MALME-3M melanoma
[11] = test system: OVCAR-4 ovarian
[12] = test system: RPMI-8226 leukemia
[13] = test system: COLO 205 colon
[14] = test system: CAKI-1 renal
[15] = test system: NCI-H460 lung

Row | SMILES | TGI [1] | TGI [2] | TGI [3] | TGI [4] | TGI [5] | TGI [6] | TGI [7] | TGI [8] | TGI [9] | TGI [10] | TGI [11] | TGI [12] | TGI [13] | TGI [14] | TGI [15]
1 | O=C1O[C@H]2C3C4CCC(C4[C@@H]2I)[C@H]13 (some centres undefined) | > 100 µM | > 100 µM | > 100 µM | > 100 µM | > 100 µM | > 100 µM | > 100 µM | > 100 µM | > 100 µM | > 100 µM | > 100 µM | > 100 µM | > 100 µM | > 100 µM | > 100 µM
2 | C[C@]12CC[C@H](O)CC1=CC[C@@H]1[C@@H]2CC[C@]2(C)C(=O)/C(=C/c3ccc([N+](=O)[O-])cc3)C[C@@H]12 | 27.8 µM | 24.9 µM | 33.4 µM | 30.6 µM | 22.6 µM | > 100 µM | 50.9 µM | 9.67 µM | 57.5 µM | 53.7 µM | 32.3 µM | > 100 µM | – | > 100 µM | > 100 µM
3 | O=C1C=C(O)c2c(O)ccc(O)c2C1=O | > 100 µM | – | > 100 µM | > 100 µM | > 100 µM | > 100 µM | > 100 µM | > 100 µM | > 100 µM | > 100 µM | > 100 µM | > 100 µM | > 100 µM | > 100 µM | > 100 µM
4 | Cc1cn([C@@H]2C[C@H](CO)[C@@H]2O)c(=O)[nH]c1=O | – | > 100 µM | > 100 µM | > 100 µM | > 100 µM | > 100 µM | > 100 µM | > 100 µM | > 100 µM | > 100 µM | > 100 µM | > 100 µM | > 100 µM | > 100 µM | > 100 µM
5 | O=c1c2cc(I)ccc2nc(SCc2nnco2)n1Cc1ccccc1 | > 100 µM | > 100 µM | > 100 µM | > 100 µM | > 100 µM | > 100 µM | > 100 µM | > 100 µM | > 100 µM | – | > 100 µM | > 100 µM | > 100 µM | > 100 µM | > 100 µM
6 | CC1(C)CN=CC(C)(OCc2ccccc2)C(=O)NC(C)(C)CN=CC(C)(OCc2ccccc2)C(=O)N1 (centres undefined) | > 10 µM | > 10 µM | > 10 µM | – | 0.808 µM | > 10 µM | > 10 µM | > 10 µM | > 10 µM | – | – | > 10 µM | – | – | > 10 µM
7 | Cn1c(COC(=O)NC2CCCCC2)c(COC(=O)NC2CCCCC2)c2ccc3cc(C=O)ccc3c21 | > 100 µM | > 100 µM | > 100 µM | – | > 100 µM | > 100 µM | > 100 µM | 60.8 µM | > 100 µM | > 100 µM | – | – | > 100 µM | > 100 µM | –
8 | O=C1c2cccnc2-c2nccc3c2c1nc1ccc(Br)cc13 | 0.295 µM | 0.311 µM | 0.0957 µM | 0.128 µM | 0.794 µM | 0.257 µM | 0.324 µM | 0.595 µM | 0.176 µM | 0.338 µM | 0.324 µM | – | 1.6 µM | 0.156 µM | 0.125 µM
9 | COc1cc(C2c3cc(OC)c(OC)c(O)c3C(=O)C3CCC(=O)N32)cc(OC)c1OC (centres undefined) | > 100 µM | > 100 µM | > 100 µM | 77.6 µM | > 100 µM | 39.5 µM | > 100 µM | > 100 µM | 91.3 µM | – | > 100 µM | > 100 µM | 71.9 µM | > 100 µM | > 100 µM
10 | CC(=O)c1ccc2c3c1O[C@H]1c4[nH]c5ccccc5c4C[C@@]4(O)[C@@H](C2)N(CC2CC2)CC[C@]314 | 20.8 µM | 45.3 µM | 30.9 µM | 35.3 µM | 28.2 µM | 32.5 µM | 28.1 µM | – | 29.6 µM | 36.3 µM | 39.9 µM | 45.1 µM | 30.8 µM | 37.4 µM | 17.7 µM
11 | CC(=O)OCC1OC(n2c(N)c(C#N)c(-c3cccc(Cl)c3)c(C#N)c2=S)C(OC(C)=O)C(OC(C)=O)C1OC(C)=O (centres undefined) | > 100 µM | > 100 µM | > 100 µM | – | > 100 µM | 50 µM | > 100 µM | 56.2 µM | 70.8 µM | > 100 µM | > 100 µM | 39.7 µM | 29.7 µM | > 100 µM | > 100 µM
12 | CC1=CC(=O)/C(=C/n2c(=S)[nH]c3cc(C)ccc32)C(=O)O1 | > 100 µM | > 100 µM | > 100 µM | > 100 µM | > 100 µM | > 100 µM | > 100 µM | > 100 µM | > 100 µM | – | > 100 µM | – | > 100 µM | > 100 µM | > 100 µM
13 | O=C(NNS(=O)(=O)c1ccccc1)c1csc(NC(=S)NC2CCCCC2)n1 | – | > 100 µM | 93.6 µM | 82.7 µM | > 100 µM | 43.3 µM | > 100 µM | > 100 µM | 45.3 µM | > 100 µM | > 100 µM | > 100 µM | 43.3 µM | 61.4 µM | –
14 | COc1ccc(N2C(=O)C3c4[nH]c5ccccc5c4C4c5ccccc5CC4C3C2=O)cc1 (centres undefined) | > 100 µM | > 100 µM | > 100 µM | > 100 µM | > 100 µM | > 100 µM | > 100 µM | > 100 µM | > 100 µM | > 100 µM | > 100 µM | – | > 100 µM | > 100 µM | > 100 µM
15 | OC1(c2ccc(Cl)cc2)c2c(c3ccccc3c3ccccc23)C2=NCCN21 (centres undefined) | 27.8 µM | 35.4 µM | 28.8 µM | – | 49.4 µM | > 100 µM | 46 µM | 7.52 µM | 33.7 µM | 40.1 µM | 11 µM | > 100 µM | > 100 µM | 68.8 µM | 41.4 µM
16 | COc1ccc(C2=NNC(c3cc4cc(Br)ccc4nc3Cl)C2)cc1 (centres undefined) | – | > 25 µM | > 25 µM | – | > 25 µM | > 25 µM | > 25 µM | > 25 µM | > 25 µM | – | > 25 µM | > 25 µM | > 25 µM | > 25 µM | > 25 µM
